Source: publication PMC4106024 (Cancer biology & therapy, 2008)
Entries after “also recorded” stand apart in the source; their conditions may differ. Read-outs that look alike come from different tables or passages of the source. *: point of attachment. Cbz = O=C(OCc1ccccc1)*; CH2F = FC*

How the values were obtained:
[1] = Stability under stressed conditions, spectral purity by HPLC-UV; assay type: physicochemical; conditions: n = 2
[2] = Stability test in solid state, spectral purity by HPLC-UV; assay type: physicochemical; conditions: amber glass container, room temperature, n = 2
Bcl-2 expressing B-cells = conditions: in vitro; cited from earlier work
[3] = system: non-tumor-bearing SCID mice; assay: Maximal tolerated dose
Maximal tolerated dose = conditions: SCID, mouse, in vivo, iv, 40 mg/kg
[4] = in vivo, cited from earlier work
[5] = system: normal female Balb/c mice; conditions: 120 μM/kg (approximately 62 mg/kg), five days daily po × 3 weeks; versus vehicle control or Apogossypol; cited from earlier work
PANC-1 cells = assay: Cell growth inhibition, MTT assay; assay type: cell-based, human; conditions: PANC-1, very low level of Bcl-2
WM cells = assay: Cell growth inhibition, Trypan blue cell counting; assay type: cell-based, human; conditions: very low level of Bcl-2
[6] = system: non-tumor-bearing SCID mice; conditions: in vivo
[7] = system: primary cells of chronic lymphocytic leukemia; assay: Cytotoxic effect on patient-derived primary cells, Trypan Blue cell counting; conditions: 350 nM or higher, 72 h
[8] = system: primary cells of mantle cell lymphoma; assay: as above; conditions: 350 nM or higher, 72 h
[9] = system: cleavage of caspase-3, caspase-9 and PARP; assay: Western blot of apoptosis markers in WSU-DLCL2 cells; assay type: cell-based, human; conditions: WSU-DLCL2 whole cell lysate
WSU-DLCL2 cells [10] = assay: Cell growth inhibition by Trypan Blue cell counting and MTT assay; assay type: cell-based, human; conditions: WSU-DLCL2, 350 nM, Trypan Blue cell counting
FSCCL cells = assay: Cell growth inhibition, Trypan blue cell counting; assay type: cell-based, human; conditions: high level of Bcl-2
[11] = system: protein levels of Bcl-XL or Bim; assay: Western blot of whole cell lysate for Bcl-XL and Bim; assay type: cell-based, human; conditions: concentrations up to 5 μM
WSU-DLCL2 cells [12] = assay: Acridine orange/ethidium bromide; assay type: cell-based, human; conditions: 4.0 μm
recombinant human Mcl-1 = recombinant human Mcl-1 (Homo sapiens, UniProt Q07820); assay: Fluorescence polarization-based competitive binding assay
recombinant human Mcl-1, sequence (Q07820 whole entry): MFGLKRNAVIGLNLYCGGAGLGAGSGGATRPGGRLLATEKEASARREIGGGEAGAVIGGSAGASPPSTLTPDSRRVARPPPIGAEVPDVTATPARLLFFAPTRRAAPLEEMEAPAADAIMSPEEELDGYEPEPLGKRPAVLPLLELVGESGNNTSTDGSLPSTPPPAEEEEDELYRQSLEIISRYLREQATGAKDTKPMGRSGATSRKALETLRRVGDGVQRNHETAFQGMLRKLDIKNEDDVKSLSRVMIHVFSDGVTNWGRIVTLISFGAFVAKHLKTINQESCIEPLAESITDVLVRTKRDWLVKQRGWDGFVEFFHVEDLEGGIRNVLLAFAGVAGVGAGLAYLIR

WSU-DLCL2 xenografts = assay: In vivo efficacy test in WSU-DLCL2 SCID mouse xenografts; set-up: species or system ICR-SCID mice; conditions: 600 mg/kg (120 mg/kg daily for 5 days), iv or po
[13] = system: normal peripheral blood lymphocytes; assay: Cytotoxic effect on normal lymphocytes, Trypan Blue cell counting; conditions: as high as 8 μM, 72 h
[14] = Serum concentration in mice; assay type: in vivo; conditions: iv 80 mg/kg per day for five days
DLCL2 cells = assay: Growth inhibition of DLCL2 cells with caspase inhibitors and/or ApoG2; assay type: cell-based, human
WSU-DLCL2 cells [15] = conditions: read-out: Estimated IC50; cited from earlier work

For `Cc1cc2c(C(C)C)c(O)c(O)c(C=O)c2c(O)c1-c1c(C)cc2c(C(C)C)c(O)c(O)c(C=O)c2c1O` (racemic) [Racemic gossypol, gossypol, reference compound], the “Spectral purity under stressed conditions” value ([1]; 0.1 N HCI, 5 mm) was 15.8 ± 0.4%, the “Spectral purity under stressed conditions” value ([1]; 0.1 N NaOH, 5 mm) was 10.4 ± 0.2% and the “Spectral purity under stressed conditions” value ([1]; 30% H2O2, 5 mm) was 14.5 ± 0.4%. For the same molecule, the “Spectral purity under stressed conditions” value ([1]; Normal light, 2 h) was 92.3 ± 0.2%, the “Spectral purity under stressed conditions” value ([1]; Reference) was 92.6 ± 0.6% and the “Spectral purity in solid state” value ([2]; 0 h) was 100.0 ± 0%. For the same molecule, the “Spectral purity in solid state” value ([2]; 2 weeks) was 99.9 ± 0.1%, the “Spectral purity in solid state” value ([2]; 3 weeks) was 99.8 ± 0.2% and the “Spectral purity in solid state” value ([2]; 4 days) was 99.4 ± 0.1%. For the same molecule, the “Spectral purity in solid state” value ([2]; 7 days) was 99.8 ± 0.1%.

For `Cc1cc2c(C(C)C)c(O)c(O)c(C=O)c2c(O)c1-c1c(C)cc2c(C(C)C)c(O)c(O)c(C=O)c2c1O` [gossypol], the “medial lethal dose (LD50)” value (Bcl-2 expressing B-cells) is given as 7.5 to 10 µM, the “Signs of toxicity at MTD” value ([3]; 120 mg/kg (3 x 40 mg/kg iv)) is given as “scruffy and rough hair as well as lethargic behavior” and the “Weight loss at MTD” value ([3]; 120 mg/kg (3 x 40 mg/kg iv), data not shown) is given as under 5%. The Lethality ([3]; daily iv injection of 40 mg/kg for 4 days or 60 mg/kg for three days) was “lethal”, the “H & E staining of sections of mouse liver, small and large intestines” value ([3]; versus vehicle control, data not shown) was “no abnormality” and the MTD at 3 days (Maximal tolerated dose) was 120 mg/kg. For the same molecule, the “Bioavailability when given orally” value ([4]; po) was 12.2–17.6% and the “Hepatotoxicity and gastrointestinal toxicity” value [5] was “a great deal of hepatotoxicity and gastrointestinal toxicity”.

In the case of Apogossypolone [ApoG2], the Growth inhibition (PANC-1 cells) is reported as “induces growth inhibition”, the Growth inhibition (WM cells) is reported as “induces growth inhibition” and the “H & E staining of sections of mouse liver, small and large intestines” value [6] is reported as “no abnormality”. The Cytotoxic effect [7] was “significant cytotoxic effect”, the Cytotoxic effect [8] was “significant cytotoxic effect” and the “Spectral purity under stressed conditions” value ([1]; 0.1 N HCI, 5 mm) was 96.5 ± 0.4%. The “Spectral purity under stressed conditions” value ([1]; 0.1 N NaOH, 5 mm) was 96.3 ± 0.4%, the “Spectral purity under stressed conditions” value ([1]; 30% H2O2, 5 mm) was 97.3 ± 0.2% and the “Spectral purity under stressed conditions” value ([1]; Normal light, 2 h) was 95.2 ± 0.2%. The “Spectral purity under stressed conditions” value ([1]; Reference) was 98.0 ± 0.4%, the “Cleavage of caspase-3, caspase-9 and PARP” value [9] was “resulted in the activation of cleavages of caspase-3, caspase-9 and PARP” and the Growth inhibition (WSU-DLCL2 cells [10]) was “approximately 50%”. For the same molecule, the Growth inhibition (FSCCL cells) was “induces growth inhibition”, the “Protein levels of Bcl-XL or Bim” value [11] was “did not affect significantly” and the “Apoptotic cells (AO/EtBr)” value (WSU-DLCL2 cells [12]; 24 h, control approximately 3%) was 10%. For the same molecule, the “Apoptotic cells (AO/EtBr)” value (WSU-DLCL2 cells [12]; 48 h, control approximately 4%) was 17%, the “Apoptotic cells (AO/EtBr)” value (WSU-DLCL2 cells [12]; 72 h, control approximately 7%) was 32% and the Ki (recombinant human Mcl-1; recombinant Mcl-1, n = 3) was 25 ± 10 nM. For the same molecule, the “Growth inhibition of mouse xenografts, single agent” value (WSU-DLCL2 xenografts) was “comparable with that resulted from treatment with CHOP; also recorded: significant growth inhibition”, the “Cytotoxicity on normal cells” value [13] was “no major cytotoxicity; also recorded: no toxicity” and the “Spectral purity in solid state” value ([2]; 0 h) was 100.0 ± 0%. The “Spectral purity in solid state” value ([2]; 2 weeks) was 100.0 ± 0.1%, the “Spectral purity in solid state” value ([2]; 3 weeks) was 100.0 ± 0.1% and the “Spectral purity in solid state” value ([2]; 4 days) was 99.7 ± 0.5%. The “Spectral purity in solid state” value ([2]; 7 days) was 99.9 ± 0.2% and the “Serum concentration (unbound)” value [14] was 5.0 µM.

With Z-DEVD-FMK the “Growth inhibition, caspase inhibitor alone” value (DLCL2 cells) was “no effects of growth inhibition”.

For `Cc1cc2c(C(C)C)c(O)c(O)cc2c(O)c1-c1c(C)cc2c(C(C)C)c(O)c(O)cc2c1O` [Apogossypol], the “medial lethal dose (LD50)” value (Bcl-2 expressing B-cells) is listed as 3 to 5 µM and the “Blood concentrations over time” value [4] is listed as “superior blood concentrations over time compared to gossypol”.

With Cbz-Val-Ala-Asp-CH2F the “Growth inhibition, caspase inhibitor alone” value (DLCL2 cells) was “no effects of growth inhibition”.

With Cbz-LEHD-CH2F the “Growth inhibition, caspase inhibitor alone” value (DLCL2 cells) was “no effects of growth inhibition”.

For `Cc1cc2c(C(C)C)c(O)c(O)c(C=O)c2c(O)c1-c1c(C)cc2c(C(C)C)c(O)c(O)c(C=O)c2c1O` [(-)-gossypol, reference compound], the IC50 (WSU-DLCL2 cells [15]) is listed as over 1000 nM and the Ki (recombinant human Mcl-1) is listed as 170 ± 10 nM.
